Measurements: patent publication US11351265B2, “Process for formulating an anionic agent” (Dicerna Pharmaceuticals, Inc., priority 2013, dated 2022)
Converted amounts (≈) assume the structure as drawn.

Assay: Solubility of cholesterol in ethanol
Assay type: physicochemical
Details: organic solvent or mixture, room temperature, absence of other lipids and/or sterols, read-out: solubility limit in ethanol
Description: Thus, a process is provided for raising the amount of an original lipid, sterol and/or blend of lipid(s) and/or sterol(s) that may be solubilized in a solvent (e.g., an alcoholic solvent, e.g., ethanol) by pre-mixing other lipid(s), sterol(s) and/or blend of lipid(s) and/or sterol(s), as oils, powders and/or in solvent(s), before adding such a pre-mixture to the original solubility-limited lipid, sterol and/or blend of lipid(s), thereby effectively raising the solubility limit of the original lipid in the solvent. […] Without wishing to be bound by theory, it is believed that the newly discovered ability to provide high concentration solutions of lipids/sterols at such elevated concentrations enhances the homogeneity of a lipid-anionic agent particle population, as compared to the concentrations at which such lipids/sterols are routinely used within the particle formulation process.
The above-described process schematically exemplified in FIG. 1, which is also referred to herein as “2141”, was not only distinguished from other tested processes in the order of addition of DsiRNA-lipid complexes and additional lipids in ethanol, but also was distinguished from other processes by the concentration of lipids and sterols that were solubilized in the additional lipids in ethanol solution. […]

solubility: 10 to 11 mg/mL (≈ 25.9 to 28.4 mM)
Compound: CC(C)CCC[C@@H](C)[C@H]1CC[C@H]2[C@@H]3CC=C4C[C@@H](O)CC[C@]4(C)[C@H]3CC[C@]12C [cholesterol]
